Reference: US12606541B2, “PPARg modulators and methods of use” (Eisai R&D Management Co., Ltd., priority 2020, dated 2026)

Key:
His6-TEV-PPARγ-(234-505) = molecular target: T1, His6-TEV-PPARγ-(234-505) (Homo sapiens, UniProt P37231); assay: TR-FRET Assay to Measure Co-R Peptide Recruitment to PPARγ; assay type: biochemical; conditions: Co-R peptide (SMRT-ID2) recruitment; top final concentration 20 μM; read-out: TR-FRET i-Ag; AC50
T1 construct: The His6-TEV-PPARγ-(234-505) protein for assay was expressed and purified; TEV cleavage site (N); made in house
T1 sequence (P37231 234-505): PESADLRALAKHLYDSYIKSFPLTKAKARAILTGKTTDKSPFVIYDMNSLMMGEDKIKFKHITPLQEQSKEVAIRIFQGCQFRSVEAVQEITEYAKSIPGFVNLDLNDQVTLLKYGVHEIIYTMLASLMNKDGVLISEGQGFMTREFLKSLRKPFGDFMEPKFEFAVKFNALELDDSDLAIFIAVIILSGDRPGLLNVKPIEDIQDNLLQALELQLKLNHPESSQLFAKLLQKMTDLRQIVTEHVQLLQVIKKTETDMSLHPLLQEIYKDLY
Procedure, shortened: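 Corepressor recruitment is measured by adding terbium-labeled anti-His antibody and FITC SMRT-ID2 peptide, at 5 and 200 nM final, after a 20-minute room-temperature protein–compound incubation. After one further hour, signal is converted to percent response between DMSO and 500 nM T0070907 wells.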

UM-UC-9 engineered cells = assay: Cell proliferation / short-term viability assay, CellTiter-Glo 144 h; assay type: cell-based, human; conditions: Homo sapiens, UM-UC-9, 144 h, read-out: CTGlo 144 h UMUC9.5, G150
Procedure, shortened: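 Viability read by CellTiter-Glo 2.0 luminescence at day 7 versus DMSO-vehicle wells and a T0 plate measured on day 0. Cells: UM-UC-9 engineered assay-ready stocks, 500 cells/well in high-glucose DMEM with 10% FBS, 37° C, 5% CO2.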

SMILES | AC50 (His6-TEV-PPARγ-(234-505)) | IC50 (UM-UC-9 engineered cells)
COc1cc(-c2cc(C(=O)N3CC[C@@H](C(=O)N[C@H]4CC[C@@](OCCN(C)C)(C(F)(F)F)CC4)CC34CC4)n[nH]2)c(F)cn1 [Example 329-B, (R)—N-((1r,4R)-4-(2-(dimethylamino)ethoxy)-4-(trifluoromethyl)cyclohexyl)-4-(5-(5-fluoro-2-methoxypyridin-4-yl)-1H-pyrazole-3-carbonyl)-4-azaspiro[2.5]octane-7-carboxamide] | 452 nM | 1650 nM
COc1cc(-c2cc(C(=O)N3CC[C@H](C(=O)NCC45CCC(O)(C4)C5)CC34CC4)n[nH]2)c(F)cn1 [Example 334, (S)-4-(5-(5-fluoro-2-methoxypyridin-4-yl)-1H-pyrazole-3-carbonyl)-N-((4-hydroxybicyclo[2.1.1]hexan-1-yl)methyl)-4-azaspiro[2.5]octane-7-carboxamide] | 72.6 nM | 284 nM
COc1cc(-c2cc(C(=O)N3CCC(C(=O)NCC45CCC(O)(C4)C5)CC34CC4)n[nH]2)c(F)cn1 (stereo not drawn) [Example 335, 4-(5-(5-fluoro-2-methoxypyridin-4-yl)-1H-pyrazole-3-carbonyl)-N-((4-hydroxybicyclo[2.1.1]hexan-1-yl)methyl)-4-azaspiro[2.5]octane-7-carboxamide] | 417 nM | 6150 nM
COc1cc(-c2cc(C(=O)N3CC[C@H](C(=O)NCC45CC(O)(C4)C5)CC34CC4)n[nH]2)c(F)cn1 [Example 336, (S)-4-(5-(5-fluoro-2-methoxypyridin-4-yl)-1H-pyrazole-3-carbonyl)-N-((3-hydroxybicyclo[1.1.1]pentan-1-yl)methyl)-4-azaspiro[2.5]octane-7-carboxamide] | 109 nM | 1050 nM
COc1cc(-c2cc(C(=O)N3CC[C@H](C(=O)NCC45COC(C)(C4)C5)CC34CC4)n[nH]2)c(F)cn1 [Example 343, (S)-4-(5-(5-fluoro-2-methoxypyridin-4-yl)-1H-pyrazole-3-carbonyl)-N-((1-methyl-2-oxabicyclo[2.1.1]hexan-4-yl)methyl)-4-azaspiro[2.5]octane-7-carboxamide] | 20 nM | 93 nM
COc1cc(-c2cc(C(=O)N3CC[C@@H](C(=O)N[C@@H]4CCN(CC(C)(C)O)C4)CC34CC4)[nH]n2)c(F)cn1 [Example 344-A, (R)-4-(3-(5-fluoro-2-methoxypyridin-4-yl)-1H-pyrazole-5-carbonyl)-N—((R)-1-(2-hydroxy-2-methylpropyl)pyrrolidin-3-yl)-4-azaspiro[2.5]octane-7-carboxamide] | 14800 nM | > 10000 nM
COc1cc(-c2cc(C(=O)N3CC[C@H](C(=O)N[C@@H]4CCN(CC(C)(C)O)C4)CC34CC4)[nH]n2)c(F)cn1 [Example 344-B, (S)-4-(3-(5-fluoro-2-methoxypyridin-4-yl)-1H-pyrazole-5-carbonyl)-N—((R)-1-(2-hydroxy-2-methylpropyl)pyrrolidin-3-yl)-4-azaspiro[2.5]octane-7-carboxamide] | 123 nM | 570 nM
COc1cc(-c2cc(C(=O)N3CC[C@H](C(=O)NC4CCN(CC(C)(C)O)C4)CC34CC4)[nH]n2)c(F)cn1 (stereo partly drawn) [Example 345-A, (S)-4-(3-(5-Fluoro-2-methoxypyridin-4-yl)-1H-pyrazole-5-carbonyl)-N-(1-(2-hydroxy-2-methylpropyl)pyrrolidin-3-yl)-4-azaspiro[2,5]octane-7-carboxamide] | 161 nM | 445 nM
COc1cc(-c2cc(C(=O)N3CC[C@@H](C(=O)N[C@H]4CCN(CC(C)(C)O)C4)CC34CC4)[nH]n2)c(F)cn1 [Example 345-B, (R)-4-(3-(5-Fluoro-2-methoxypyridin-4-yl)-1H-pyrazole-5-carbonyl)-N—((S)-1-(2-hydroxy-2-methylpropyl)pyrrolidin-3-yl)-4-azaspiro[2.5]octane-7-carboxamide] | 7250 nM | > 10000 nM
